Reference: patent EP4144350B1, “TREATMENT OR PREVENTION OF VASCULAR MALFORMATION” (Universitätsmedizin Greifswald, priority 2021, dated 2023)

Columns and labels:
Assay type in all cases: cell-based, human
[1] = test system: CCM3^-/- cells in fusion organoids; experiment: hiPSC-derived vascular fusion organoids, fluorescence imaging; details: 10 µM, continuous culture, imaged day 5, 7, 10
Protocol: hiPSCs were differentiated into vascular organoids according to the protocol of Wimmer and colleagues. Briefly, 800,000 hiPSCs were seeded in ultra-low attachment 6-well plates (Corning) in aggregation medium for 2 days until aggregates had formed. On day 0, mesodermal induction was initiated with CHIR99021 (Tocris Bioscience, Bristol, United Kingdom) and BMP-4 (Miltenyi Biotec) in N2B27 medium. Supplementation of VEGF-A (PeproTech, Inc., Rocky Hill, NJ, USA) and forskolin (Sigma-Aldrich) on day 3 induced vascular differentiation. On day 5, vascular aggregates were embedded in a collagen I-Matrigel matrix. VEGF-A, FGF-2 (Miltenyi Biotec), and FBS (Thermo Fisher Scientific) enriched StemPro-34 medium (Thermo Fisher Scientific) was added for vessel sprouting. Vascular network extraction was performed on day 10.

[2] = test system: CCM3^+/+ and CCM3^-/- CI-huVECs; experiment: Cell viability after compound treatment; details: 72 h after treatment (Fig. 15)
[3] = test system: CCM1^-/- BOECs in co-culture with CCM1^+/- BOECs; experiment: Co-culture of patient-specific BOECs, frequency of second knockout allele; details: 10 µM (Fig. 23)
Protocol: (§1) Clonally expanded CI-huVEC lines with biallelic loss-of-function variants in the first coding exon of CCM3 have been described before or were established according to a published CRISPR/Cas9 genome editing protocol. Blood outgrowth endothelial cells (BOECs) were cultured in EGM-2 medium (Lonza, Basel, Switzerland) supplemented with 18 % FCS. With the approval of the local ethics committee (University Medicine Greifswald, Germany; No.: BB 047/14a), CCM1^-/- BOECs had been established previously from CCM1^+/- BOECs of a CCM1 mutation carrier with CRISPR/Cas9 genome editing. Mutant and wild-type ECs were co-cultured in 96-well plates under standard culture conditions with the indicated mutant-to-wild-type ratios. 2500 cells were seeded per well.
The fraction of mutant alleles in co-culture were analysed by amplicon deep sequencing or T7EI cleavage assay. In brief, genomic target regions were first amplified by PCR. For T7E1 cleavage assays, heteroduplexes were formed and digested with T7EI enzyme (New England Biolabs, Frankfurt am Main, Germany). Cleavage products were visualised by gel electrophoresis and analysed with the Image Lab software (v6.0, Bio-Rad, Hercules, CA, USA). For NGS analysis, sequencing adapters and individual barcodes were introduced in a second round of PCR [7]. […] The data were analysed with the SeqNext software (JSI Medical Systems, Ettenheim, Germany).

CI-huVECs = experiment: Bright-field microscopy of EC morphology after compound treatment; details: library screening follow-up (Fig. 14)
CCM3^-/- CI-huVECs = experiment: CyQuant cell proliferation assay combined with mutant allele frequencies, co-culture (mutant cells); details: six days
Protocol: Clonally expanded CI-huVEC lines with biallelic loss-of-function variants in the first coding exon of CCM3 have been described before or were established according to a published CRISPR/Cas9 genome editing protocol. Blood outgrowth endothelial cells (BOECs) were cultured in EGM-2 medium (Lonza, Basel, Switzerland) supplemented with 18 % FCS. With the approval of the local ethics committee (University Medicine Greifswald, Germany; No.: BB 047/14a), CCM1^-/- BOECs had been established previously from CCM1^+/- BOECs of a CCM1 mutation carrier with CRISPR/Cas9 genome editing. Mutant and wild-type ECs were co-cultured in 96-well plates under standard culture conditions with the indicated mutant-to-wild-type ratios. 2500 cells were seeded per well. The proliferation rate of mutant and wild-type ECs in monoculture was quantified with the CyQuant® Cell Proliferation Assay Kit (C7026, Thermo Fisher Scientific). To discriminate the proliferation rates of CCM3^+/+ and CCM3^-/- CI-huVEC in co-culture, the CyQuant® Cell Proliferation Assay results were combined with mutant allele frequencies that had been determined by amplicon deep sequencing. To analyse their sensitivity to apoptosis, mutant and wild-type ECs were seeded in 96-well plates with 15.000 cells per well, and treated with staurosporine ([…], Sigma-Aldrich, St. Louis, MO, USA) 24 h later. The Caspase-3 DEVD-R110 Fluorometric HTS Assay Kit (30009, Biotium, Fremont, CA, USA), the Cell Meter^TM Caspase 8 Activity Apoptosis Assay Kit (22798, AAT Bioquest, Sunnyvale, CA, USA), and the Cell Meter^TM Caspase 9 Activity Apoptosis Assay Kit (22799, AAT Bioquest) were used following the manufacturer's instructions.

[4] = test system: CCM3^-/- CI-huVECs in co-culture with CCM3^+/+ CI-huVECs; experiment: Spike-in co-culture assay / apoptosis compound library screening: CCM3 knockout allele frequency by amplicon deep sequencing
Protocol: as §1
An apoptosis compound library with 189 small molecules that target apoptosis, survival and proliferation was used in a high throughput screening approach (HY-L003[HY-LD-000001651]; MedChem Express, Monmouth Junction, NJ, USA). Co-cultures were treated with 10 µM of each substrate for six days. Compounds were added 5 h and 3 days after cell seeding.
NSC59984 (IUPAC: (2E)-1-(4-Methyl-1-piperazinyl)-3-(5-nitro-2-furyl)-2-propen-1-one, HY19726, MedChem Express), was used for individual experiments with the indicated concentrations.
The fraction of mutant alleles in co-culture were analysed by amplicon deep sequencing or T7EI cleavage assay. In brief, genomic target regions were first amplified by PCR. For T7E1 cleavage assays, heteroduplexes were formed and digested with T7EI enzyme (New England Biolabs, Frankfurt am Main, Germany). Cleavage products were visualised by gel electrophoresis and analysed with the Image Lab software (v6.0, Bio-Rad, Hercules, CA, USA). For NGS analysis, sequencing adapters and individual barcodes were introduced in a second round of PCR [7]. Sequencing libraries were pooled and sequenced on a MiSeq instrument with 2 x 150 cycles (Illumina, San Diego, CA, USA). The data were analysed with the SeqNext software (JSI Medical Systems, Ettenheim, Germany).

EC morphology / endothelial phenotype (CI-huVECs): minimal effects on EC morphology
SMILES: CN1CCN(C(=O)/C=C/c2ccc([N+](=O)[O-])o2)CC1 [NSC59984, (E)-1-(4-methylpiperazin-1-yl)-3-(5-nitrofuran-2yl)prop-2-en-1-one]
Proliferation of CCM3^-/- cells in fusion organoids [1]: inhibited the proliferation of CCM3^-/- cells in fusion organoids
Cell viability differences between CCM3^+/+ and CCM3^-/- CI-huVECs [2]: No cell viability differences
Expansion of CCM1^-/- BOECs in co-culture [3]: significantly blocked the expansion of CCM1^-/- BOECs
Relative proliferation rate of CCM3^-/- CI-huVECs (CCM3^-/- CI-huVECs; 1 µM): 4632%
Relative proliferation rate of CCM3^-/- CI-huVECs (CCM3^-/- CI-huVECs; 5 µM): 1671%
Relative proliferation rate of CCM3^-/- CI-huVECs (CCM3^-/- CI-huVECs; 10 µM): 419%
Mutant EC expansion at high spike-in ratios ([4]; 10 µM (Fig. 20)): blocked mutant EC expansion even at high spike-in ratios but did not decrease mutant allele frequencies
Clonal expansion of mutant ECs after end of treatment ([4]; 10 µM for six days, then seven additional days without treatment (Fig. 21)): still efficiently blocked after the end of NSC59984 treatment
Knockout allele frequencies ([4]; 10 µM of each compound, six days, added 5 h and 3 days after seeding, DMSO-treated co-culture controls 33.5 %): 10.2%
Mutant EC expansion after pretreatment of CCM3^-/- CI-huVECs before co-culture ([4]; 6 days co-culture without additional treatment (Fig. 22)): completely prevented mutant EC expansion
Clonal expansion of CCM3^-/- CI-huVECs in co-culture ([4]; different concentrations (Fig. 18)): blocked the clonal expansion of CCM3^-/- CI-huVECs in a concentration-dependent manner
